# Results as given in patent US3982012A, “4-Hydroxy-benzimidazole compounds and therapeutic compositions” (Boehringer Mannheim G.m.b.H., priority 1974, dated 1976).
# Tests used:
# cardiac β-receptor = cardiac β-receptor blocking activity: inhibition of isoprenalin tachycardia in wake rabbits; details: for LD50/DE250: ratio of mouse i.v. LD50 to rabbit i.v. DE250 (therapeutic breadth); for Heartbeat Frequency x ± sx / DE250: wake rabbits; for Heartbeat Frequency x ± sx: 30 min later isoprenalin i.v.; for DE250: interpolated dosage which limits the frequency increase to 250 beats/min
# Description: (§1) The following tests were carried out to determine (a) the toxicity and (b) the cardiac β-receptor blocking activity of certain test compounds by determining the inhibition of the heart beat frequency increase induced by intravenous administration of isoprenalin.
# b. The β-receptor blocking activity of the test compounds was tested on wake rabbits weighing between 2 to 3.5 kg. and kept in wooden cages. EKG-electrodes were inserted into the hind quarters of the rabbits s.c. (II. lead) and the heart frequency was measured using an integrator (15 seconds) as a digital value. The test compounds were then infused through a small tube to the ear vein of the rabbits over a period of 15 minutes. 30 Minutes after the infusion isoprenalin (3,4-dihydroxy-α-[(isopropylamino)-methyl]-benzylalcohol) was injected intravenously at […].
# in vivo = details: iv, mouse, i.v. (tail vein), five male and five female mice per dosage, read-out: Acute Toxicity LD50 Mouse
# Description: as §1
# a. […] The compounds, in dissolved form, were injected into the tail vein of five male and five female mice each in increasing dosages. The results (% of animals which died) were used, via programmed probability analysis, to determine the median lethal dosage (LD50).
Structure (SMILES),LD50/DE250 (cardiac β-receptor),Heartbeat Frequency x ± sx (cardiac β-receptor; 0.5 mg/kg i.v. infusion),Heartbeat Frequency x ± sx (cardiac β-receptor; 1.0 mg/kg i.v. infusion),Heartbeat Frequency x ± sx (cardiac β-receptor; 2.0 mg/kg i.v. infusion),Heartbeat Frequency x ± sx (cardiac β-receptor; 5.0 mg/kg i.v. infusion),Heartbeat Frequency x ± sx (cardiac β-receptor; 10.0 mg/kg i.v. infusion),Heartbeat Frequency x ± sx (cardiac β-receptor; 20.0 mg/kg i.v. infusion),DE250 (cardiac β-receptor),Heartbeat Frequency x ± sx (cardiac β-receptor; 0.01 mg/kg i.v. infusion),Heartbeat Frequency x ± sx (cardiac β-receptor; 0.1 mg/kg i.v. infusion),Heartbeat Frequency x ± sx (cardiac β-receptor; 0.25 mg/kg i.v. infusion),Heartbeat Frequency x ± sx (cardiac β-receptor; 4.0 mg/kg i.v. infusion),LD50 (in vivo),Heartbeat Frequency x ± sx (cardiac β-receptor; 0.05 mg/kg i.v. infusion)
"CC(=O)Nc1ccc(OCC(O)CNC(C)C)cc1 (stereo not drawn) [Compound A, 4-(2-Hydroxy-3-isopropylamino-propoxy)-acetanilide, reference compound]",28,307 ± 7 beats/min,264 ± 9 beats/min,250 ± 4 beats/min,246 ± 7 beats/min,217 ± 4 beats/min,225 ± 6 beats/min,2.5 mg/kg i.v.,,,,,,
"CC(C)NCC(O)COc1cccc2ccccc12 (stereo not drawn) [Compound B, 1-Isopropylamino-3-(1-naphthoxy)-2-propanol, reference compound]",,248 ± 6 beats/min,210 ± 8 beats/min,,,,,0.400 mg/kg i.v.,342 ± 5 beats/min,309 ± 9 beats/min,259 ± 7 beats/min,191 ± 6 beats/min,,
"CC(C)NCC(O)COc1cccc2nc[nH]c12 (stereo not drawn) [Compound I, 4-(3-Isopropylamino-2-hydroxy-propyloxy)-benzimidazole]",422,228 ± 5 beats/min,218 ± 11 beats/min,,219 ± 13 beats/min,,,0.09 mg/kg i.v.,300 ± 11 beats/min,239 ± 6 beats/min,,,38 mg/kg,292 ± 17 beats/min
"CC(C)(C)NCC(O)COc1cccc2nc[nH]c12 (stereo not drawn) [Compound II, 4-(3-tert.-Butylamino-2-hydroxy-propyloxy)-benzimidazole]",560,,244 ± 9 beats/min,,273 ± 11 beats/min,,,0.05 mg/kg i.v.,286 ± 12 beats/min,236 ± 6 beats/min,,,28 mg/kg,
"Cc1nc2cccc(OCC(O)CNC(C)C)c2[nH]1 (stereo not drawn) [Compound III, 2-Methyl-4-(3-isopropylamino-2-hydroxy-propyloxy)-benzimidazole]",170,,234 ± 11 beats/min,,219 ± 14 beats/min,,,0.17 mg/kg i.v.,303 ± 17 beats/min,255 ± 9 beats/min,,,29 mg/kg,318 ± 11 beats/min
"Cc1nc2cccc(OCC(O)CNC(C)(C)C)c2[nH]1 (stereo not drawn) [Compound IV, 2-Methyl-4-(3-tert.-butylamino-2-hydroxy-propyloxy)-benzimidazole]",425,224 ± 8 beats/min,211 ± 5 beats/min,,232 ± 5 beats/min,,,0.08 mg/kg i.v.,289 ± 18 beats/min,248 ± 7 beats/min,,,34 mg/kg,255 ± 7 beats/min
